From patent publication US8471005B2 (Cephalon, Inc., priority 2008, dated 2013)
Where two headings read alike, the source gives them in different places.

Key:
JAK2 = target: T1, JAK2 (Homo sapiens, UniProt O60674); assay: Recombinant Human JAK2 Kinase Assay (TRF); type: biochemical; settings: read-out: JAK2 Potency
T1 construct: host or cells: baculovirus expression system
Summary of the method: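 Kinase activity of baculovirus-expressed JAK2 is followed on a surface-immobilised biotinylated peptide, with the reaction run for 20 min at room temperature in buffer containing 0.2 μM ATP and manganese. Phosphorylation is read with Eu-N1 PY100 antibody.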

ALK = target: T2, ALK (Homo sapiens, UniProt Q9UM73); assay: ALK Kinase Assay (ELISA/TRF, PLC-γ substrate); type: biochemical; settings: read-out: ALK Potency
T2 construct: host or cells: baculovirus expression system
T2 sequence (Q9UM73 19-1620): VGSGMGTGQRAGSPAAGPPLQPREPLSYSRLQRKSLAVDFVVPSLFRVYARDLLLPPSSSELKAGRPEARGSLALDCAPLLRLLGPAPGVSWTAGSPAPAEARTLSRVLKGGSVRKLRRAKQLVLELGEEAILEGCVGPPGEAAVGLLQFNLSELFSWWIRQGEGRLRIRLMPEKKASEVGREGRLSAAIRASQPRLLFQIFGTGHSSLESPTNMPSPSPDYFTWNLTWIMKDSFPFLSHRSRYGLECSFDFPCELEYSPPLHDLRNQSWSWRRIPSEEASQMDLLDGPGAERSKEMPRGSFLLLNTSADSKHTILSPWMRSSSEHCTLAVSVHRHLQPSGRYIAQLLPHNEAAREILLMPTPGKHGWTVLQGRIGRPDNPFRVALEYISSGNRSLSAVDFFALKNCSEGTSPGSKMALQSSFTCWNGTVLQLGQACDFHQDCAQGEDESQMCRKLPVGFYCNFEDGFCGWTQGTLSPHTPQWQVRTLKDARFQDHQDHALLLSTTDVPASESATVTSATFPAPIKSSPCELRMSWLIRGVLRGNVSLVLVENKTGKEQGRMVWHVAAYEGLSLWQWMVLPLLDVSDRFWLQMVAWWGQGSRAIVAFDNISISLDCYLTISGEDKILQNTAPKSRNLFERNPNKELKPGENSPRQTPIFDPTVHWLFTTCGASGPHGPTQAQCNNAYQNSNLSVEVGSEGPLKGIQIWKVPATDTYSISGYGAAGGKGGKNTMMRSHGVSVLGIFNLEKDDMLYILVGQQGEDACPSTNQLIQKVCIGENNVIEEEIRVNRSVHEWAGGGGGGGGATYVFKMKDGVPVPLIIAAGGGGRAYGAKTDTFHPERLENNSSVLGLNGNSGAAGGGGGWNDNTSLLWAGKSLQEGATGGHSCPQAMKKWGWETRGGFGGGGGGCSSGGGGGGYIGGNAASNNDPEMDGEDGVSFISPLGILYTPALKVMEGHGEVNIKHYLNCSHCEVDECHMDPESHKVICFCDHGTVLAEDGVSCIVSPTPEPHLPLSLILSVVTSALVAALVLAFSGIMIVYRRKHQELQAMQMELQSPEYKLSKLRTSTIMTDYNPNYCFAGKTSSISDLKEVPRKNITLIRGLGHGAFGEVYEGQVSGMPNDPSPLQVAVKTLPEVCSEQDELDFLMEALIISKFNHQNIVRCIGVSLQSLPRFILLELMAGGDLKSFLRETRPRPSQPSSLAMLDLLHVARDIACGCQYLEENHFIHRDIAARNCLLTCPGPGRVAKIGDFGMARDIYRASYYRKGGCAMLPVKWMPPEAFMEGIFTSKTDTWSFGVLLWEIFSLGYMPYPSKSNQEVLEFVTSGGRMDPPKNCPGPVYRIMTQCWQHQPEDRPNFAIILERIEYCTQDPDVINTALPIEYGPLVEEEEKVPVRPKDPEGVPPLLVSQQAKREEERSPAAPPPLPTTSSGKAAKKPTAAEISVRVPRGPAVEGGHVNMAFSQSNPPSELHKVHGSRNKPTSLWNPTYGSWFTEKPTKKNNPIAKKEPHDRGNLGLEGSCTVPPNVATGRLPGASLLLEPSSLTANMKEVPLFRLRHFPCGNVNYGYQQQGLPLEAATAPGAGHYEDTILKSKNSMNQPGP
Summary of the method: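 Time-resolved fluorescence ELISA using Eu-N1 PT66 antibody to detect phosphorylated PLC-γ (coated at 10 μg/mL). Enzyme at 30 ng/ml ALK; 15 min incubation, 37° C.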

[1] = JAK2 kinase inhibition, 0.2 μM ATP
[2] = ALK kinase inhibition, 1 μM ATP

T1 sequence (O60674 whole entry): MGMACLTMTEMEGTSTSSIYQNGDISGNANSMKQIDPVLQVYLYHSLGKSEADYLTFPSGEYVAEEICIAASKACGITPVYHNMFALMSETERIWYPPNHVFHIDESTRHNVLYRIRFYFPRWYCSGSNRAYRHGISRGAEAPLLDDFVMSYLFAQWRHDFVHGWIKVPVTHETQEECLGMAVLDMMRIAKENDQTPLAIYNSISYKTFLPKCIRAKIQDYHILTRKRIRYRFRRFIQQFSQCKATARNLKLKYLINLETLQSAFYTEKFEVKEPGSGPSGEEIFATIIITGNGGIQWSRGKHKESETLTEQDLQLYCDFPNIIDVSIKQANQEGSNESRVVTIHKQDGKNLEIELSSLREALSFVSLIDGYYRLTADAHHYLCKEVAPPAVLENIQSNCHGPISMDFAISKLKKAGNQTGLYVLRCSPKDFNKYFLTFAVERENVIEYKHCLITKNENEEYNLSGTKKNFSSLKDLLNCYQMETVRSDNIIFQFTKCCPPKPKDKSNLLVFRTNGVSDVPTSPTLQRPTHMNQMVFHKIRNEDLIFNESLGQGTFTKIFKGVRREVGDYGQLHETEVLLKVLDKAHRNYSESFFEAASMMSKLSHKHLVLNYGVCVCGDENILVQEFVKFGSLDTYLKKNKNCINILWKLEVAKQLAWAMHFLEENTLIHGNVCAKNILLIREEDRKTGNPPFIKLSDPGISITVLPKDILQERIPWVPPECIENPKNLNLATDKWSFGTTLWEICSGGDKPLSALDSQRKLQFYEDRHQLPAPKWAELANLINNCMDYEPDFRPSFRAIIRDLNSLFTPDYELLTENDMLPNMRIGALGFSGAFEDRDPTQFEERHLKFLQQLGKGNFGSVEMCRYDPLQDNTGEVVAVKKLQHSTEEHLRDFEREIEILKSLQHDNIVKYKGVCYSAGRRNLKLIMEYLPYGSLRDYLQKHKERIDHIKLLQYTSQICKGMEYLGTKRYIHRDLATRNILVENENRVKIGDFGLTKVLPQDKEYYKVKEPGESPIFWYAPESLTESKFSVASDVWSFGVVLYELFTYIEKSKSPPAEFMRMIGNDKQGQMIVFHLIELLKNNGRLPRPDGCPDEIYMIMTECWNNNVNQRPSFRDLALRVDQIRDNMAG

SMILES	IC50 (JAK2; [1]) [nM]	IC50 (ALK; [2]) [nM]	IC50 (JAK2; JAK2 Kinase Inhibition) [nM]	IC50 (ALK; ALK Kinase Inhibition) [nM]
COc1cc(N2CCCN(C)CC2)ccc1Nc1ncc2ccc(-c3ccccc3OC)n2n1 [Example 765, [2-Methoxy-4-(4-methyl-[1,4]diazepan-1-yl)-phenyl]-[7-(2-methoxy-phenyl)-pyrrolo[2,1-f][1,2,4]triazin-2-yl]-amine]	100 to 1000	< 100		
COc1cc(N2CCC(N3CCN(C(=O)OCc4ccccc4)CC3)CC2)ccc1Nc1ncc2ccc(-c3ccccc3OC)n2n1 [Example 531, 4-(1-{3-Methoxy-4-[7-(2-methoxy-phenyl)-pyrrolo[2,1-f][1,2,4]triazin-2-ylamino]-phenyl}-piperidin-4-yl)-piperazine-1-carboxylic acid benzyl ester]	100 to 1000	< 100		
CN1C(=O)COc2cc(Nc3ncc4ccc(-c5ccccc5N(C)S(C)(=O)=O)n4n3)ccc21 [Example 640, N-Methyl-N-{2-[2-(4-methyl-3-oxo-3,4-dihydro-2H-benzo[1,4]oxazin-7-ylamino)-pyrrolo[2,1-f][1,2,4]triazin-7-yl]-phenyl}-methanesulfonamide]	< 100	100 to 1000		
COc1ccc(Nc2ncc3ccc(-c4cccc(NS(C)(=O)=O)c4)n3n2)cc1N1CCOCC1 [Example 395, N-{3-[2-(4-Methoxy-3-morpholin-4-yl-phenylamino)-pyrrolo[2,1-f][1,2,4]triazin-7-yl]-phenyl}-methanesulfonamide]			< 100	100 to 1000
CN(C)S(=O)(=O)c1cccc(Nc2ncc3ccc(-c4cccc(S(=O)(=O)NC(C)(C)C)c4)n3n2)c1 [Example 592, 3-({7-[3-(tert-butylsulfamoyl)phenyl]pyrrolo[2,1-f][1,2,4]triazin-2-yl}amino)-N,N-dimethylbenzenesulfonamide]	< 100	1000 to 10000		
COc1ccccc1-c1ccc2cnc(Nc3ccc4oc(C)nc4c3)nn12 [Example 564, [7-(2-Methoxy-phenyl)-pyrrolo[2,1-f][1,2,4]triazin-2-yl]-(2-methyl-benzoxazol-5-yl)-amine]	< 100	100 to 1000		
COc1ccccc1-c1ccc2cnc(Nc3ccc4ncccc4c3)nn12 [Example 172, [7-(2-Methoxy-phenyl)-pyrrolo[2,1-f][1,2,4]triazin-2-yl]-quinolin-6-yl-amine]			< 100	1000 to 10000
C[C@H](O)CN1CCN(c2cccc(Nc3ncc4ccc(-c5cccc(Cl)c5)n4n3)c2)CC1 [Example 212, (S)-1-(4-{3-[7-(3-Chloro-phenyl)-pyrrolo[2,1-f][1,2,4]triazin-2-ylamino]-phenyl}-piperazin-1-yl)-propan-2-ol]			< 100	< 100
Clc1cccc(Nc2ncc3cc4ccccc4n3n2)c1 [Example 271, (3-Chloro-phenyl)-[1,2,4]triazino[1,6-a]indol-2-yl-amine]			100 to 1000	> 10000
CCN1CCOC(c2ccc(Nc3ncc4ccc(-c5cccc(NS(C)(=O)=O)c5)n4n3)cc2)C1 (centres unmarked) [Example 651, N-(3-{2-[4-(4-Ethyl-morpholin-2-yl)-phenylamino]-pyrrolo[2,1-f][1,2,4]triazin-7-yl}phenyl)methanesulfonamide]	< 100	100 to 1000		
O=C(c1ccc(Nc2ncc3ccc(-c4cccnc4)n3n2)cc1)N1CCOCC1 [Example 317, Morpholin-4-yl-[4-(7-pyridin-3-yl-pyrrolo[2,1-f][1,2,4]triazin-2-ylamino)-phenyl]-methanone]			< 100	1000 to 10000
COc1cc(N2CCC(N3CCCN(C)CC3)CC2)ccc1Nc1ncc2ccc(-c3ccccc3N(C)S(C)(=O)=O)n2n1 [Example 784, N-[2-(2-{2-Methoxy-4-[4-(4-methyl-[1,4]diazepan-1-yl)-piperidin-1-yl]-phenylamino}-pyrrolo[2,1-f][1,2,4]triazin-7-yl)-phenyl]-N-methyl-methanesulfonamide]	100 to 1000	< 100		
COc1cc(C2CCN(CC(=O)N(C)C)CC2)ccc1Nc1ncc2ccc(-c3ccccc3OC)n2n1 [Example 811, 2-(4-{3-Methoxy-4-[7-(2-methoxy-phenyl)-pyrrolo[2,1-f][1,2,4]triazin-2-ylamino]-phenyl}-piperidin-1-yl)-N,N-dimethyl-acetamide]	100 to 1000	< 100		
CS(=O)(=O)c1ccc(-c2ccc3cnc(Nc4ccc(C5(C#N)CCN(CC(N)=O)CC5)cc4)nn23)cc1 [Example 1547, 2-(4-Cyano-4-{4-[7-(4-methanesulfonyl-phenyl)-pyrrolo[2,1-f][1,2,4]triazin-2-ylamino]-phenyl}-piperidin-1-yl)-acetamide]			< 100	1000 to 10000
COc1cccc(Nc2ncc3cc4ccccc4n3n2)c1 [Example 272, (3-Methoxy-phenyl)-[1,2,4]triazino[1,6-a]indol-2-yl-amine]			< 100	> 10000
CN(c1ccccc1-c1ccc2cnc(Nc3ccc(C4(C#N)CCN(CC(N)=O)CC4)cc3)nn12)S(C)(=O)=O [Example 1549, 2-[4-Cyano-4-(4-{7-[2-(methanesulfonyl-methyl-amino)-phenyl]-pyrrolo[2,1-f][1,2,4]triazin-2-ylamino}-phenyl)-piperidin-1-yl]-acetamide]			< 100	< 100
CS(=O)(=O)Nc1cccc(-c2ccc3cnc(Nc4ccc(N5CCOCC5)cc4)nn23)c1 [Example 201, N-{3-[2-(4-Morpholin-4-yl-phenylamino)-pyrrolo[2,1-f][1,2,4]triazin-7-yl]-phenyl}-methanesulfonamide]			< 100	100 to 1000
COc1cc(C2CCN(C[C@@H](O)CO)CC2)c(F)cc1Nc1ncc2ccc(-c3ccccc3N(C)S(C)(=O)=O)n2n1 [Example 551, N-[2-(2-{4-[1-((R)-2,3-Dihydroxy-propyl)-piperidin-4-yl]-5-fluoro-2-methoxy-phenylamino}-pyrrolo[2,1-f][1,2,4]triazin-7-yl)-phenyl]-N-methyl-methanesulfonamide]	1000 to 10000	< 100		

Continued, values first:

IC50 (JAK2; [1]) [nM]	IC50 (ALK; [2]) [nM]	IC50 (JAK2; JAK2 Kinase Inhibition) [nM]	IC50 (ALK; ALK Kinase Inhibition) [nM]	SMILES
< 100	< 100			COc1ccc(Cl)cc1-c1ccc2cnc(Nc3ccc(C4CCN(C)CC4)cc3)nn12 [Example 1121, [7-(5-Chloro-2-methoxy-phenyl)-pyrrolo[2,1-f][1,2,4]triazin-2-yl]-[4-(1-methyl-piperidin-4-yl)-phenyl]-amine]
		< 100	100 to 1000	CC(C)(C)NS(=O)(=O)c1cccc(-c2ccc3cnc(Nc4ccc(F)c(N5CCOCC5)c4)nn23)c1 [Example 1394, N-tert-Butyl-3-[2-(4-fluoro-3-morpholin-4-yl-phenylamino)-pyrrolo[2,1-f][1,2,4]triazin-7-yl]-benzenesulfonamide]
100 to 1000	< 100			COc1cc(C2CCN(CC(N)=O)CC2)ccc1Nc1ncc2c(C)cc(-c3ccccc3OC)n2n1 [Example 1262, 2-(4-{3-Methoxy-4-[7-(2-methoxy-phenyl)-5-methyl-pyrrolo[2,1-f][1,2,4]triazin-2-ylamino]-phenyl}-piperidin-1-yl)-acetamide]
< 100	1000 to 10000			CN1CCN(c2ccc(Nc3ncc4ccc(-c5cccc(N6CCN(C(=O)OC(C)(C)C)CC6)c5)n4n3)cc2)CC1 [Example 1166, 4-(3-{2-[4-(4-Methyl-piperazin-1-yl)-phenylamino]-pyrrolo[2,1-f][1,2,4]triazin-7-yl}-phenyl)-piperazine-1-carboxylic acid tert-butyl ester]
		< 100	100 to 1000	CC1(C)C(=O)Nc2cc(Nc3ncc4ccc(-c5ccccn5)n4n3)ccc21 [Example 1563, 3,3-Dimethyl-6-(7-pyridin-2-yl-pyrrolo[2,1-f][1,2,4]triazin-2-ylamino)-1,3-dihydro-indol-2-one]
< 100	100 to 1000			CN1CCCC1COc1cc(Nc2ncc3ccc(-c4ccccc4N(C)S(C)(=O)=O)n3n2)ccc1Cl (centres unmarked) [Example 1010, N-(2-{2-[4-Chloro-3-(1-methyl-pyrrolidin-2-ylmethoxy)-phenylamino]-pyrrolo[2,1-f][1,2,4]triazin-7-yl}-phenyl)-N-methyl-methanesulfonamide]
> 10000	100 to 1000			COc1cc(C2CCN(C(=O)OC(C)(C)C)CC2)ccc1Nc1ncc2ccc(-c3ccccc3N(C)S(C)(=O)=O)n2n1 [Example 818, 4-(4-{7-[2-(Methanesulfonyl-methyl-amino)-phenyl]-pyrrolo[2,1-f][1,2,4]triazin-2-ylamino}-3-methoxy-phenyl)-piperidine-1-carboxylic acid tert-butyl ester]
< 100	> 10000			COc1ccc(-c2ccc3cnc(Nc4ccn(CC(=O)N5CCOCC5)n4)nn23)cn1 [Example 1112, 2-{3-[7-(6-Methoxy-pyridin-3-yl)-pyrrolo[2,1-f][1,2,4]triazin-2-ylamino]-pyrazol-1-yl}-1-morpholin-4-yl-ethanone]
< 100	100 to 1000			Cc1cc(-c2ccc3cnc(Nc4ccc(N5CCN(C)CC5)cc4)nn23)cnc1F [Example 1046, [7-(6-Fluoro-5-methyl-pyridin-3-yl)-pyrrolo[2,1-f][1,2,4]triazin-2-yl]-[4-(4-methyl-piperazin-1-yl)-phenyl]-amine]
< 100	1000 to 10000			CN1CCN(c2ccc(Nc3ncc4ccc(Sc5ccncc5)n4n3)cc2)CC1 [Example 1117, [4-(4-Methyl-piperazin-1-yl)-phenyl]-[7-(pyridin-4-ylsulfanyl)-pyrrolo[2,1-f][1,2,4]triazin-2-yl]-amine]
